Measurements as given in patent US8647887B2, “Measuring G protein coupled receptor activation” (Commonwealth Scientific and Industrial Research Organisation, priority 2009, dated 2014).
Several values for one entry are separate records, joined by “and”; a condition that tells them apart may be missing. Identical values can stand only once.

How the values were obtained:
Str112 receptor (TGTR) = experiment: cell-free BRET^2 assay with dual-tagged Str112 (TGTR); assay type: biochemical, C. elegans; details: 1 μM ligand, 10 nM TGTR; for BRET^2 signal compared to the response of TGTR to water, significance: P≦0.05
Text: (§1) The TGTR sequence flanked by NcoI and NotI restriction sites was synthesised by Genscript. The TGTR sequence was inserted into the NcoI and NotI sites of the pENTR11 vector. These were then recombined into pYES-DEST52 (Invitrogen) using Gateway® technology for subsequent expression in S. cerevisiae.
The same expression protocol was used for the expression of TGTR in InVSC1 as for OGOR expression. The TGTR coding sequence is provided as SEQ ID NO:51, whereas the amino acid sequence is provided as SEQ ID NO:52.
The same RET analysis protocol as described for the OGOR selectivity studies. 1 μM of the ligands pyruvic acid, citric acid, ethyl acetate, acetoin and diacteyl was assayed with 10 nM of TGTR
The bacterial strain OP50 was grown in LB overnight at 37° C. with shaking (200 rpm). E. coli strain OP50 is usually used as a food source for nematode growth in the laboratory (Brenner, 1974). Two assays were performed using the OP50 bacterial culture. The first assay was the addition of 10 μL of the bacterial culture or 10 μL of LB to 10 nM TGTR. The second assay required that 1 mL of the bacterial culture was placed in a microcentrifuge tube and centrifuged at 10000×g for 1 minute. 10 μL of the supernatant, following decanting into a fresh microcentrifuge tube, or 10 μL of LB was added to 10 nM TGTR. Following bacterial sample addition the same protocol was followed as for the OGOR RET analysis.

whole-cell BRET^2 assay = assay type: cell-based; details: 1 μM, 45 minutes incubation, P≦0.05
Experimental: FIG. 16. BRET^2 signal upon incubation (45 minutes) with 1 μM of diacetyl (mean±S.D., n=3) monitored using a whole-cell and cell-free assay systems.

ODR-10 receptor (OCOY) = experiment: cell-free FRET assay with dual-labelled ODR-10 (OCOY); assay type: biochemical, C. elegans; details: μM concentrations of diacetyl
Experimental: All spectral scans were recorded with a plate-reading SpectraMax M2 spectrofluorimeter (Molecular Devices). 100 μL aliquots of membrane preparations sample were scanned using 96-well plates (Perkin-Elmer). Fluorescence spectral scans recorded from 450 to 600 nm with an excitation wavelength of 420 nm using a 455 nm emission cut-off filter.
To compare the sensitivity of the BRET^2 system to the FRET system for monitoring GPCR activation the BRET^2 components used to tag the ODR-10 receptor (OGOR) were replaced with FRET components resulting in the insertion of CFP into the 3rd intracellular loop and YFP at the C-terminus (OCOY). The CFP (mCFP) (SEQ ID NO:45) and YFP (mCitrine) (SEQ ID NO:46) derivatives were both monomeric and codon optimized (EUROSCARF) for yeast expression (SEQ ID NOs 47 and 48 respectively).
as §1, with “OCOY” for “TGTR”, “KpnI” for “NcoI”, “XhoI” for “NotI”, “cerevisiae. […]” for “cerevisiae.”
To assess the relative concentrations of dual-tagged receptor samples the fluorescence intensity of the sample was determined from spectral scans and the sample amount normalized by the OCOY fluorescence intensity. […]

OGOR mutant (H110Y) = experiment: cell-free BRET^2 assay with OGOR mutant (H110Y), negative control; assay type: biochemical, C. elegans; details: μM concentrations of diacetyl
Experimental: Site-directed mutagensis was carried out with OGOR in pDONR201 vector (see above) as the double stranded template. The histidine 110 to tyrosine (H110Y) mutation was performed using the Stratagene Quickchange site directed mutagenesis kit according to standard protocols using the following primers; 5′-[…]-3′ (WT) (SEQ ID NO:43) and 5′-[…] GTG-3′ (H110Y antisense) (SEQ ID NO:44).
PCR was performed with Pfx50™ standard ingredients (Invitrogen) and conditions were as follows 94° C. 2 mins, 16 cycles of 94° C. 30 secs, 55° C. 1 minute, 68° C. 6.8 minutes. Following sequencing the OGOR mutant was then subcloned into pYES-DEST52 (Invitrogen) using Gateway® technology (5′ and 3′ attB sites were included in original OGOR sequence) for subsequent expression in S. cerevisiae.
RET analysis was carried out in 96-well plates (Perkin-Elmer) and involved incubating the specified dual tagged receptor protein (OGOR) for 45 minutes with 1 μM of each particular odorant. The final volume was 100 μL and included 10 μL of odorant, receptor protein sample (see ‘Normalization of sample concentration’ section), D-PBS (or 1×PBS) and 5 μL of Clz400a (5 μM). A background signal was recorded by assaying a sample of D-PBS (or 1×PBS). During the incubation time the 96-well plate wells were sealed with Topseal™—A (Packard) with each sample area individually sealed. […]

ODR-10 receptor (OGOR) = experiment: cell-free BRET^2 assay with dual-labelled ODR-10 (OGOR) in yeast membrane preparations; assay type: biochemical, C. elegans
Experimental: Cells were harvested by centrifugation at 1500×g (4° C.) for 5 minutes, washed in water and resuspended in 4 mL of Dulbecco's phosphate buffered saline (D-PBS) or 1×PBS, containing 1000 mg/L glucose, 36 mg/L sodium pyruvate, calcium and magnesium (Invitrogen). The cells were lysed by French press (˜18000 psi) and the soluble protein fractions were isolated by centrifugation at 9300×g (4° C.) for 15 minutes. Following this the soluble protein fraction was transferred to 13.15 mL polycarbonate thick wall centrifuge tubes and ultracentrifuged at 40,000 rpm (Beckman Coulter L-80 ultra-centrifuge) for 1 hour at 4° C. The supernatant was decanted and the membrane pellet resuspended in 1 mL of D-PBD or 1×PBS, and left overnight at 4° C. to solubilise.
Simultaneous dual emission RET measurements were carried out with a POLARstar OPTIMA microplate reader (BMG LabTech). Simultaneous emission measurements used a BRET^2 filter set (410-80/515-30) with the set respective gains for each channel (3300/4095).
To assess the relative concentrations of BRET^2 tagged receptor samples the fluorescence intensity of the sample was determined from spectral scans and the sample amount normalized by the OGOR fluorescence intensity. To convert GFP^2 intensity into concentration purified GFP^2 protein was assayed at different concentrations to produce a calibration graph relating concentration to fluorescence intensity. […] Rearranging the line of best fit equation (y=271x+233.31) results in conversion of fluorescence intensity to concentration. […]
RET analysis was carried out in 96-well plates (Perkin-Elmer) and involved incubating the specified dual tagged receptor protein (OGOR) for 45 minutes with 1 μM of each particular odorant. […] A background signal was recorded by assaying a sample of D-PBS (or 1×PBS). […]
For BRET measurements Clz400a substrate (5 μM) was added following the 45 minute incubation time and the signal recorded using a 0.50s integration time over a 5 second period. Following addition of Clz400a the well was re-sealed while the signal was recorded to reduce cross-contamination of samples. […]

[1] = test system: ODR-10 expressing HEK 293 cells; details: cited from earlier work
α2A receptor = molecular target: T1, α2A receptor (Mus musculus, UniProt Q01338); details: 10 nM; cited from earlier work
T1 sequence (Q01338 1-465): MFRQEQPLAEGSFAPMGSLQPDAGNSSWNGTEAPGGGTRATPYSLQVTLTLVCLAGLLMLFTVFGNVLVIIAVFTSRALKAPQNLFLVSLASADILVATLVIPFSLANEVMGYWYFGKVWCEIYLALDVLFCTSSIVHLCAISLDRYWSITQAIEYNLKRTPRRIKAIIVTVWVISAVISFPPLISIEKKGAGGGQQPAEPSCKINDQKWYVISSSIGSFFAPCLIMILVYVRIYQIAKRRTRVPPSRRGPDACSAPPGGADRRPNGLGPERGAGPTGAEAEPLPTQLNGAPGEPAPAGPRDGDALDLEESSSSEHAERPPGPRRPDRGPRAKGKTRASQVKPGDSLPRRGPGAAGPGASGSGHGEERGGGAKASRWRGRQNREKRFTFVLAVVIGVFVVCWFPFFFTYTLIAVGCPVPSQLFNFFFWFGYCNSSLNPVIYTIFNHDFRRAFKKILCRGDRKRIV

PTHR = molecular target: T2, PTHR (Homo sapiens, UniProt Q03431); details: 1 μM; cited from earlier work
T2 sequence (Q03431 27-593): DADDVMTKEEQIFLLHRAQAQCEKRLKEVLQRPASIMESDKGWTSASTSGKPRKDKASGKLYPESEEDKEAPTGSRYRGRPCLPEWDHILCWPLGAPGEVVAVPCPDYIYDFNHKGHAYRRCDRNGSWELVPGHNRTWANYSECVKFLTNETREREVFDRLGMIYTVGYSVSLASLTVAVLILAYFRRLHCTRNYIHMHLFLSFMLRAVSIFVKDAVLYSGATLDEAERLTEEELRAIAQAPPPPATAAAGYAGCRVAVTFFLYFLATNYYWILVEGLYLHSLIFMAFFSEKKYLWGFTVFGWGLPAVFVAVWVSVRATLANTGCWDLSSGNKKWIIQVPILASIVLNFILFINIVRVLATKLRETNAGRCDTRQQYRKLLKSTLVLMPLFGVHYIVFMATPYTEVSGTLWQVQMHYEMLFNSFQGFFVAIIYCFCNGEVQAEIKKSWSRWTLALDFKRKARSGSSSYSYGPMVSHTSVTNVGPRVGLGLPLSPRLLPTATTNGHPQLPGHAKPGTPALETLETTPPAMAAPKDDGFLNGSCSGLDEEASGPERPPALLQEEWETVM

CC(=O)C(C)O (stereo not shown) [acetoin]
increase in the BRET^2 signal (Str112 receptor (TGTR)): 20.8% | BRET^2 signal compared to the response of TGTR to water, significance (Str112 receptor (TGTR)): significantly higher

CC(=O)C(C)=O [diacetyl]
change in the BRET^2 signal, whole cell assay (whole-cell BRET^2 assay): no significant change | reduction in FRET ratio (intensity at 520 nm/intensity at 480 nm) (ODR-10 receptor (OCOY)): 7.6% | response versus solvent (water) response, significance (ODR-10 receptor (OCOY)): significantly different | BRET^2 response to diacetyl (OGOR mutant (H110Y)): 4.1% | response versus solvent (water) response, significance (OGOR mutant (H110Y)): not significantly different | decrease in the BRET^2 signal, cell-free assay system (ODR-10 receptor (OGOR); 1 μM, 45 minutes incubation, Example 7, P≦0.05): 52% | change in BRET^2 signal compared to the solvent (water) response (ODR-10 receptor (OGOR); OGOR, μM concentrations (1 μM) of ligand, 45 minutes incubation, decrease in signal): 37.5% and 32.4% | EC50 expressed as parts per quadrillion (ODR-10 receptor (OGOR); equivalent of the fM EC50): 0.31 ppq | Ca^2+ elevation response ([1]; ODR-10 expressing HEK 293 cells): the only volatile compound to produce a Ca^2+ elevation response | apparent affinity (EC50) as part per million ([1]; expressed in human cells, calcium imaging): ~0.2 ppm | EC50 ([1]; expressed in human cells, calcium imaging, read-out: apparent affinity (EC50) of ODR-10 for diacetyl): 2.3 µM

NC[C@H](O)c1ccc(O)c(O)c1 [norepinephrine]
change in the FRET signal upon binding (α2A receptor): ~5%

CC(=O)C(=O)O [pyruvic acid]
BRET^2 signal compared to the response of TGTR to water, significance (Str112 receptor (TGTR)): significantly higher

PTH: parathyroid hormone, agonist of PTHR, literature value
change in the FRET signal upon binding (PTHR): ~20%
